Assay results published in article PMC9004777, “Double drugging of prolyl-tRNA synthetase provides a new paradigm for anti-infective drug development” (PLoS Pathogens, 2022).
Read-outs that look alike come from different tables or passages of the source.

Assays:
[1] = target: T1, Toxoplasma gondii prolyl-tRNA synthetase (TgPRS) (Toxoplasma gondii, UniProt A0A7J6JUK2); assay: co-crystal structure with L95 at […] Å; TSA; malachite green aminoacylation assay (IC50); format: biochemical
T1 construct: gene TGRH88_057780
T1 sequence (A0A7J6JUK2 215-711): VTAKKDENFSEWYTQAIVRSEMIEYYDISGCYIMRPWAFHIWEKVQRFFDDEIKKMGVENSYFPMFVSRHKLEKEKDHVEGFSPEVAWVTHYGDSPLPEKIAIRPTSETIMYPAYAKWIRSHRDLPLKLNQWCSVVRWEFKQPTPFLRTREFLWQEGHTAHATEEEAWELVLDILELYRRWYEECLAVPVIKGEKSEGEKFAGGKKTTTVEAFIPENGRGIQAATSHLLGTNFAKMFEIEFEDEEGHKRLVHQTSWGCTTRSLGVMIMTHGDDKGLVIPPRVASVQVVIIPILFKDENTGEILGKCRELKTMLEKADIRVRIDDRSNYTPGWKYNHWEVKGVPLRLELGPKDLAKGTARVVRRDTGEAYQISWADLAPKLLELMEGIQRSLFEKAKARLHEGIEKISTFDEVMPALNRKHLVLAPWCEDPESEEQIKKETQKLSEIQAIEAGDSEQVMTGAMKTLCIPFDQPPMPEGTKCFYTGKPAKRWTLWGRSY

HsPRS = target: T2, HsPRS (Homo sapiens, UniProt P07814); assay: malachite green aminoacylation assay, recombinant enzyme; TSA; format: biochemical
T2 construct: gene EPRS1

[2] = target: T1, Toxoplasma gondii prolyl-tRNA synthetase (TgPRS); assay: co-crystal structures at […] Å (with L-pro, 7EVV; with HFG, 7EVU); TSA; malachite green aminoacylation assay (IC50); format: biochemical
[3] = target: T1, Toxoplasma gondii prolyl-tRNA synthetase (TgPRS); assay: co-crystal structure with L95 at […] Å; format: binding

T2 sequence (P07814 whole entry): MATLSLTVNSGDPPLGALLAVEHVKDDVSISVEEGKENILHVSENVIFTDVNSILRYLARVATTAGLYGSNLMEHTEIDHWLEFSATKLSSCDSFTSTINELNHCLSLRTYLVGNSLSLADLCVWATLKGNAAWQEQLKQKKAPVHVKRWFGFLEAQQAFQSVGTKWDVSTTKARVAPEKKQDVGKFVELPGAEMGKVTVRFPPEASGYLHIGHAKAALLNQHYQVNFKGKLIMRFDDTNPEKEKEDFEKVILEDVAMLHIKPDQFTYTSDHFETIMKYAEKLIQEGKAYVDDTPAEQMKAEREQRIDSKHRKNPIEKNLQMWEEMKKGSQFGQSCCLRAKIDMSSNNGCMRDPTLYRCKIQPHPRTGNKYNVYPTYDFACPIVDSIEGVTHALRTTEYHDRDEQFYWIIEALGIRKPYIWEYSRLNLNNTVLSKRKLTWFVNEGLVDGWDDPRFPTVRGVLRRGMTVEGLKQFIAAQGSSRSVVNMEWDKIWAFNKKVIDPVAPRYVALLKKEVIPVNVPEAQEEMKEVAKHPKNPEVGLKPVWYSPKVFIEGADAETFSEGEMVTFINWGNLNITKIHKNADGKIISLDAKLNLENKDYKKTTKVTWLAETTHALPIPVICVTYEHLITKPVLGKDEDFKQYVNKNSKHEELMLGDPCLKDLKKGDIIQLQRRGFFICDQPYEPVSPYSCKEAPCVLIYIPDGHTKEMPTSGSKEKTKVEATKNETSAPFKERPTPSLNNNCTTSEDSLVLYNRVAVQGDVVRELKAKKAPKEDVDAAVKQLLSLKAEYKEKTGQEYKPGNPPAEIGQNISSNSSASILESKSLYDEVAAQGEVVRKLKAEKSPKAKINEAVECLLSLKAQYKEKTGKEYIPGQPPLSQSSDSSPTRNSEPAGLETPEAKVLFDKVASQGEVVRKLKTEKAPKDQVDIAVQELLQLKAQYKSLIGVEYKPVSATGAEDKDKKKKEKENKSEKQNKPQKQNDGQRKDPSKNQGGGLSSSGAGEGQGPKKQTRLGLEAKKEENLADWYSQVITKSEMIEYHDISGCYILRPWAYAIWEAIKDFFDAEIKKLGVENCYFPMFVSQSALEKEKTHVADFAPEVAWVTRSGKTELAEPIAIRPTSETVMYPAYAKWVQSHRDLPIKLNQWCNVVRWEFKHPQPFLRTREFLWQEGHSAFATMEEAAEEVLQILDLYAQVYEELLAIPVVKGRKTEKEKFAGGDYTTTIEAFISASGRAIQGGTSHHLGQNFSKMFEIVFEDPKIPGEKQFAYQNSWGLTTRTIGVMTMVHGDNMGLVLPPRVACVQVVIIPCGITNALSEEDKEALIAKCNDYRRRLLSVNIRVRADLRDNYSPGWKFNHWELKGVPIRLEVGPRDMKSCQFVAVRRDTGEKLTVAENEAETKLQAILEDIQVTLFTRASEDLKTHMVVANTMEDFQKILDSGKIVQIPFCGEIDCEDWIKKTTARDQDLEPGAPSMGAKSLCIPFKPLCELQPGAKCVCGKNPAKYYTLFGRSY

O=C(C[C@H]1NCCC[C@@H]1O)Cn1cnc2cc(Br)c(Cl)cc2c1=O (racemic) [HFG, halofuginone] was tested, and the IC50 [1] was 0.00541 µM and the IC50 (HsPRS; read-out: IC50) was 0.0106 µM.
Cc1cc(N2CC[C@@](C#N)(C3CC3)C2=O)cc(NC(=O)Cc2ccccc2)n1 [L95] showed an IC50 [2] of 0.0477 µM and an IC50 (HsPRS) of 0.0477 µM.
O=C(O)[C@@H]1CCCN1 [L-pro, L-proline] was tested, and the “co-crystal structure with L95 at 1.7 Å” value [3] was “forms a salt bridge between the carboxylic group of L-pro and the guanidium group of Arg470”.
